Data reported in patent publication US4743594A, “Antibiotic, antitumor compounds and their use” (priority 1984, dated 1988).
≈ marks a conversion by molar mass, not a printed value.

Tests used:
[1] = test system: Sarcina lutea (ATCC 9341); assay: in-vitro antibacterial activity, agar dilution (MIC); assay type: cell-based; conditions: Micrococcus luteus, ATCC9341, MHA, 48 hrs, pH 7.4, read-out: Minimum Inhibitory Concentration (MIC)
Experimental: (§1) Antibiotics AT 2433 A1, AT 2433 A2, and AT 2433 B1 and AT 2433 B2 were tested in-vitro to determine anti-bacterial activity against a variety of gram-positive and gram-negative organisms
(§2) The in-vitro antibacterial activity tests were performed via conventional agar dilution methods in Muell-Hintom agar (MHA) at pH 7.4.

[2] = test system: gram-positive bacteria; assay: antibacterial activity against gram-positive bacteria; assay type: cell-based
Experimental: as §1, §2

[3] = in-vivo antitumor activity against transplanted mouse P-388 leukemia (NCI test); conditions: mouse, in vivo; every 3rd day for 3 injections, ip; read-out: maximum tolerated dose (no day 5 or earlier deaths due to toxicity)
Experimental: (§3) Anti-tumor activity was determined by the standard National Cancer Institute test which was published in Cancer Chemothr. Rep. 3:1-103, 1972.
(§4) In the test, 10^6 cells (a lethal dose) per mouse of P-388 leukemia are administered interperitoneally on day 0. The test compounds are serially diluted (1:2, 1:4, 1:8, etc.) and each dilution is administered interperitoneally to the mice on days 1, 4 and 7.
(§5) ^1 Tumor inoculum: 10^6 ascites cells, ip
(§6) ^2 Host: CDF1 male mice
(§7) ^3 Treatment schedule: For AT 2433 A1 and B1, ip. days 1, 4
(§8) ^4 Tox: Toxic, i.e., <4/6 mice alive on day 5
(§9) ^5 MST: Median survived time in days
(§10) ^6 % T/C: (MSTTreated/MST-Control) × 100
(§11) ^7 Criteria: If % T/C >125, the test compound is considered to exhibi
(§12) significant antitumor activity at that dose.

[4] = test system: P-388 leukemia; assay: as above; conditions: for MST (% T/C): >125 = significant antitumor activity; for in-vivo antitumor activity: P-388 leukemia in mice
Experimental: as §3, §4, §5, §6, §7, §8, §9, §10, §11, §12

[5] = test system: E. Coli SS 1431; assay: in-vitro antibacterial activity, agar dilution (MIC); assay type: cell-based; conditions: Escherichia coli, MHA, 48 hrs, pH 7.4
Experimental: as §1, §2

[6] = test system: gram-negative bacteria; assay: antibacterial activity against gram-negative bacteria; assay type: cell-based
Experimental: as §1, §2

[7] = 0.5 mg/kg/inj, ip, days 1, 4 and 7
[8] = 0.5 mg/kg/inj, ip, days 1, 4 and 7, CDF1 male mice
[9] = 1 mg/kg/inj, ip, days 1, 4 and 7
[10] = 1 mg/kg/inj, ip, days 1, 4 and 7, CDF1 male mice
[11] = 2 mg/kg/inj, ip, days 1, 4 and 7
[12] = 2 mg/kg/inj, ip, days 1, 4 and 7, CDF1 male mice
[13] = 4 mg/kg/inj, ip, days 1, 4 and 7
[14] = 4 mg/kg/inj, ip, days 1, 4 and 7, CDF1 male mice
[15] = 8 mg/kg/inj, ip, days 1, 4 and 7
[16] = 8 mg/kg/inj, ip, days 1, 4 and 7, CDF1 male mice
[17] = 16 mg/kg/inj, ip, days 1, 4 and 7, CDF1 male mice
[18] = 16 mg/kg/inj, ip, days 1, 4 and 7

| Structure (SMILES) | MIC [1] [µg/mL] | antibacterial activity against gram-positive bacteria [2] | MST (% T/C) [4, 7] [%] | MST (median survived time) [4, 8] [days] | Avg. wt. change, gm on day 5 [4, 7] [gm] | Survivors day 5 [4, 7] | MST (% T/C) [4, 9] [%] | MST (median survived time) [4, 10] [days] | Avg. wt. change, gm on day 5 [4, 9] [gm] | Survivors day 5 [4, 9] | MST (% T/C) [4, 11] [%] | MST (median survived time) [4, 12] [days] | Avg. wt. change, gm on day 5 [4, 11] [gm] | Survivors day 5 [4, 11] | MST (% T/C) [4, 13] [%] | MST (median survived time) [4, 14] [days] | Avg. wt. change, gm on day 5 [4, 13] [gm] | Survivors day 5 [4, 13] | MST (% T/C) [4, 15] [%] | MST (median survived time) [4, 16] [days] | further results |
| --- | --- | --- | --- | --- | --- | --- | --- | --- | --- | --- | --- | --- | --- | --- | --- | --- | --- | --- | --- | --- | --- |
| CNC1COC(OCC2OC(n3c4c(Cl)cccc4c4c5c(c6c7ccccc7[nH]c6c43)C(=O)N(C)C5=O)C(O)C(O)C2OC)CC1O (stereo not drawn) [AT 2433 A1] | 0.25 (≈ 0.368 µM) | active | 150 | 13.5 | -0.2 | 6/6 | 150 | 13.5 | -0.7 | 6/6 | 172 | 15.5 | -2.2 | 6/6 | 156 | 14.0 | -2.3 | 5/6 | 194 | 17.5 | MTD [3]: 2 mg/kg; increase in life span over controls ([4]; 2 mg/kg given every 3rd day for 3 injections): 72%; Avg. wt. change, gm on day 5 [4, 15]: -4.1 gm; Survivors day 5 [4, 15]: 4/6; MST (% T/C) (toxicity flag) [4, 17]: Tox (Toxic, i.e., <4/6 mice alive on day 5); MST (toxicity flag) [4, 17]: Tox (Toxic, i.e., <4/6 mice alive on day 5); Avg. wt. change, gm on day 5 [4, 18]: -3.2 gm; Survivors day 5 [4, 18]: 2/6; in-vivo antitumor activity [4]: exhibited in-vivo antitumor activity |
| COC1C(COC2CC(O)C(N)CO2)OC(n2c3c(Cl)cccc3c3c4c(c5c6ccccc6[nH]c5c32)C(=O)N(C)C4=O)C(O)C1O (stereo not drawn) [AT 2433 A2] | 1 (≈ 1.5 µM) | active | – | – | – | – | – | – | – | – | – | – | – | – | – | – | – | – | – | – | – |
| CNC1COC(OCC2OC(n3c4ccccc4c4c5c(c6c7ccccc7[nH]c6c43)C(=O)N(C)C5=O)C(O)C(O)C2OC)CC1O (stereo not drawn) [AT 2433 B1] | 0.25 (≈ 0.388 µM) | active | 111 | 10.0 | 3.0 | 5/5 | 117 | 10.5 | 3.0 | 5/5 | 122 | 11.0 | 0.0 | 6/6 | 133 | 12.0 | -0.6 | 6/6 | 133 | 12.0 | MIC [5]: 16 µg/mL (≈ 24.8 µM); antibacterial activity against gram-negative bacteria [6]: exhibit antibacterial activity; Avg. wt. change, gm on day 5 [4, 15]: -0.3 gm; Survivors day 5 [4, 15]: 6/6; MST (% T/C) [4, 18]: 144%; MST (median survived time) [4, 17]: 13.0 days; Avg. wt. change, gm on day 5 [4, 18]: -0.7 gm; Survivors day 5 [4, 18]: 6/6; in-vivo antitumor activity [4]: exhibited in-vivo antitumor activity; tumor growth inhibition ([4]; highest dose tested, 16 mg/kg): inhibitory to tumor growth but less effective than AT 2433 A1 |
| COC1C(COC2CC(O)C(N)CO2)OC(n2c3ccccc3c3c4c(c5c6ccccc6[nH]c5c32)C(=O)N(C)C4=O)C(O)C1O (stereo not drawn) [AT 2433 B2] | 4 (≈ 6.34 µM) | active | – | – | – | – | – | – | – | – | – | – | – | – | – | – | – | – | – | – | – |
